Data reported in PubChem BioAssay AID1963432 (Molecular Pharmacology Branch, DTP, NCI, 2024).
Where “and” joins values, the source holds several entries; their conditions need not be identical. Identical values can stand only once.

Test system: SYO-1 complex spheroid growth, percent test/control
Assay: Anticancer human tumor SYO-1 cell line growth inhibition [Asc];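 further: compound exposure lasted 7 days after spheroids grew 3 days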;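 on viability, T/C: 100% = DMSO vehicle control viability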
Settings: for viability, T/C: stronger effect = lower value; active means viability on the fitted dose curve at most 10% of control; inactive means the rest
In short: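 Tumor cells were grown as multicellular spheroids with stromal HUVEC and mesenchymal stem cells and treated singly or in combination. Concentrations fell in half-log steps from the clinical Cmax, or from 10 microM where none was known.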

[1] = curve of first compound, second compound 0.0316 µM
[2] = curve of first compound, second compound 0.1 µM
[3] = curve of first compound, second compound 0.316 µM
[4] = curve of first compound, second compound 1 µM
[5] = second compound 0.0316 µM, first compound 0.0316 µM
[6] = second compound 0.0316 µM, first compound 0.1 µM
[7] = second compound 0.0316 µM, first compound 0.316 µM
[8] = second compound 0.0316 µM, first compound 1 µM
[9] = second compound 0.1 µM, first compound 0.0316 µM
[10] = second compound 0.1 µM, first compound 0.1 µM
[11] = second compound 0.1 µM, first compound 0.316 µM
[12] = second compound 0.1 µM, first compound 1 µM
[13] = second compound 0.316 µM, first compound 0.0316 µM
[14] = second compound 0.316 µM, first compound 0.1 µM
[15] = second compound 0.316 µM, first compound 0.316 µM
[16] = second compound 0.316 µM, first compound 1 µM
[17] = second compound 1 µM, first compound 0.0316 µM
[18] = second compound 1 µM, first compound 0.1 µM
[19] = second compound 1 µM, first compound 0.316 µM
[20] = second compound 1 µM, first compound 1 µM

O=C(c1cc(Cc2n[nH]c(=O)c3ccccc23)ccc1F)N1CCN(C(=O)C2CC2)CC1 + Cc1c(S(C)(=O)=O)c(-c2cc(F)cc(N3CCN(c4ccc(NS(=O)(=O)c5ccc(NC(CCN6CCC(C(=O)OCCCP(=O)(O)O)CC6)CSc6ccccc6)c(S(=O)(=O)C(F)(F)F)c5)cc4)CC3)c2)c(-c2ccc(Cl)cc2)n1C(C)C
active: viability, T/C (second compound 0.0316 µM, first compound 10 µM) 4.21% | viability, T/C (second compound 0.1 µM, first compound 10 µM) 3.38% | viability, T/C (second compound 0.316 µM, first compound 3.16 µM) 6.13% | viability, T/C (second compound 0.316 µM, first compound 10 µM) 2.3% | viability, T/C (second compound 1 µM, first compound 3.16 µM) 4.13% | viability, T/C (second compound 1 µM, first compound 10 µM) 1.66% | viability, T/C (second compound 3.16 µM, first compound 3.16 µM) 2.51% | viability, T/C (second compound 3.16 µM, first compound 10 µM) 1.72% | viability, T/C (second compound 10 µM, first compound 3.16 µM) 2.29% | viability, T/C (second compound 10 µM, first compound 10 µM) 2.09%
1.17 µM: IC50 (curve of first compound, second compound 3.16 µM)
1.84 µM: IC50 [1]
0.613 µM: IC50 (curve of first compound, second compound 10 µM)
1.64 µM: IC50 [4]
inactive: viability, T/C [5] 106% | viability, T/C [6] 90.1% | viability, T/C [7] 96.5% | viability, T/C [8] 85.1% | viability, T/C (second compound 0.0316 µM, first compound 3.16 µM) 18.6% | viability, T/C [9] 105% | viability, T/C [10] 93.3% | viability, T/C [11] 89.7% | viability, T/C [12] 92.5% | viability, T/C (second compound 0.1 µM, first compound 3.16 µM) 13.1% | viability, T/C [13] 95.6% | viability, T/C [14] 92% | viability, T/C [15] 95.7% | viability, T/C [16] 82.2% | viability, T/C [17] 89.7% | viability, T/C [18] 108% | viability, T/C [19] 87.2% | viability, T/C [20] 84.9% | viability, T/C (second compound 3.16 µM, first compound 0.0316 µM) 93.4% | viability, T/C (second compound 3.16 µM, first compound 0.1 µM) 88.7% | viability, T/C (second compound 3.16 µM, first compound 0.316 µM) 83.9% | viability, T/C (second compound 3.16 µM, first compound 1 µM) 57.7% | viability, T/C (second compound 10 µM, first compound 0.0316 µM) 83.7% | viability, T/C (second compound 10 µM, first compound 0.1 µM) 81.1% | viability, T/C (second compound 10 µM, first compound 0.316 µM) 69.8% | viability, T/C (second compound 10 µM, first compound 1 µM) 35.9%
1.85 µM: IC50 [2]
1.63 µM: IC50 [3]

Cc1nc(N2CCC3(CC2)COC(C)C3N)c(CO)nc1Sc1ccnc(N)c1Cl (centres undefined)
inactive: viability, T/C (compound 0.00949 µM) 107% and 98.7% and 112% | viability, T/C (compound 0.03 µM) 112% and 94% and 111% | viability, T/C (compound 0.0949 µM) 107% and 116% and 103% | viability, T/C (compound 0.3 µM) 108% and 109% (2×) | viability, T/C (compound 0.949 µM) 112% and 114% and 107% | viability, T/C (compound 3 µM) 103% and 100% and 109%
> 3 µM: IC50 (curve of compound)

CCN1CCN(Cc2ccc(Nc3ncc(F)c(-c4cc(F)c5nc(C)n(C(C)C)c5c4)n3)nc2)CC1 + CNC(C)C(=O)NC1CN(S(=O)(=O)c2cccc(S(=O)(=O)N3CCC4CCC(C(=O)NC(c5ccccc5)c5ccccc5)N4C(=O)C(NC(=O)C(C)NC)C3)c2)CCC2CCC(C(=O)NC(c3ccccc3)c3ccccc3)N2C1=O
inactive: viability, T/C (second compound 0.01 µM, first compound 0.00316 µM) 110% | viability, T/C (second compound 0.01 µM, first compound 0.01 µM) 114% | viability, T/C (second compound 0.01 µM, first compound 0.0316 µM) 108% | viability, T/C (second compound 0.01 µM, first compound 0.1 µM) 111% | viability, T/C (second compound 0.01 µM, first compound 0.316 µM) 109% | viability, T/C (second compound 0.01 µM, first compound 1 µM) 116% | viability, T/C (second compound 0.0316 µM, first compound 0.00316 µM) 101% | viability, T/C (second compound 0.0316 µM, first compound 0.01 µM) 101% | viability, T/C [5] 105% | viability, T/C [6] 110% | viability, T/C [7] 112% | viability, T/C [8] 114% | viability, T/C (second compound 0.1 µM, first compound 0.00316 µM) 102% | viability, T/C (second compound 0.1 µM, first compound 0.01 µM) 101% | viability, T/C [9] 96.7% | viability, T/C [10] 106% | viability, T/C [11] 105% | viability, T/C [12] 108% | viability, T/C (second compound 0.316 µM, first compound 0.00316 µM) 97.6% | viability, T/C (second compound 0.316 µM, first compound 0.01 µM) 103% | viability, T/C [13] 108% | viability, T/C [14] 100% | viability, T/C [15] 109% | viability, T/C [16] 115% | viability, T/C (second compound 1 µM, first compound 0.00316 µM) 101% | viability, T/C (second compound 1 µM, first compound 0.01 µM) 101% | viability, T/C [17] 103% | viability, T/C [18] 110% | viability, T/C [19] 101% | viability, T/C [20] 101%
> 1 µM: IC50 (curve of first compound, second compound 0.01 µM) | IC50 [1] | IC50 [2] | IC50 [3] | IC50 [4]

CNC(C)C(=O)NC1CN(S(=O)(=O)c2cccc(S(=O)(=O)N3CCC4CCC(C(=O)NC(c5ccccc5)c5ccccc5)N4C(=O)C(NC(=O)C(C)NC)C3)c2)CCC2CCC(C(=O)NC(c3ccccc3)c3ccccc3)N2C1=O (centres undefined)
inactive: viability, T/C (compound 0.00316 µM) 109% and 90.1% and 99.2% | viability, T/C (compound 0.01 µM) 102% [middle of 14 runs] | viability, T/C (compound 0.0316 µM) 98.2% [middle of 14 runs] | viability, T/C (compound 0.316 µM) 98.7% [middle of 14 runs] | viability, T/C (compound 1 µM) 96.6% [middle of 14 runs]
> 1 µM: IC50 (compound alone, run of 10/24/2022) | IC50 (compound alone, run of 11/15/2022) | IC50 (curve of compound)

Cn1ncnc1[C@H]1c2n[nH]c(=O)c3cc(F)cc(c23)N[C@@H]1c1ccc(F)cc1
inactive: viability, T/C (compound 0.000316 µM) 105% and 109% and 104% | viability, T/C (compound 0.001 µM) 103% and 106% and 95.2% | viability, T/C (compound 0.00316 µM) 104% and 97.3% and 107% | viability, T/C (compound 0.01 µM) 87.3% and 95.5% and 98.1% | viability, T/C (compound 0.0316 µM) 53.5% and 74.9% and 64.4% | viability, T/C (compound 0.1 µM) 15% and 91.9% and 12.5%
0.0348 µM and > 0.1 µM and 0.0435 µM: IC50 (curve of compound)
